The results in this text go back to patent US10745356B2, “Compositions and methods for treating tuberculosis” (priority 2015, dated 2020).

Converted amounts (≈) assume the structure as drawn.

The subject of one assay is M. tuberculosis strains. The assay is described as follows: Minimum Inhibitory Concentration (MIC) against M. tuberculosis strains, resazurin microtiter plate assay. Conditions: Mycobacterium tuberculosis. The class given is cell-based, Mycobacterium tuberculosis.
`Cc1cc2nc(C(=O)NCCF)cc(-c3ccccc3Cl)c2c(C)c1-c1ccncc1` [Compound 31]: the MIC90 amounted to 1.25 µM (≈ 0.542 µg/mL).

For the compound `Cc1cc2nccc(-c3ccccc3)c2c(C)c1-c1ccc(CN2CCOCC2)cc1` [Compound 47], the MIC90 amounted to 0.45 µM (≈ 0.184 µg/mL). `Cc1cc2nccc(-c3ccccc3Cl)c2c(C)c1-c1ccc(CN2CCOCC2)cc1` [Compound 48]: the MIC90 was 0.3 µM (≈ 0.133 µg/mL). On the same count and under the same terms, next, `Cc1cc2nccc(-c3cccc(Cl)c3)c2c(C)c1-c1ccc(CN2CCOCC2)cc1` [Compound 49]: 0.6 µM (≈ 0.266 µg/mL). `Cc1cc2nccc(-c3ccc(Cl)cc3)c2c(C)c1-c1ccc(CN2CCOCC2)cc1` [Compound 50] yielded an MIC90 of 80 µM (≈ 35.4 µg/mL).

`COc1cccc(-c2ccnc3cc(C)c(-c4ccc(CN5CCOCC5)cc4)c(C)c23)c1OC` [Compound 51]: the MIC90 was greater than 40 µM.

As for `Cc1cc2nccc(-c3ccccc3C(=O)O)c2c(C)c1-c1ccc(CN2CCOCC2)cc1` [Compound 57], the MIC90 stood at 40 µM (≈ 18.1 µg/mL). Compound `Cc1cccc(C)c1-c1ccnc2cc(C)c(-c3ccc(CN4CCOCC4)cc3)c(C)c12` [Compound 58] gave an MIC90 of 5 µM (≈ 2.18 µg/mL). `Cc1cc2nccc(-c3cccnc3C#N)c2c(C)c1-c1ccc(CN2CCOCC2)cc1` [Compound 62] displayed an MIC90 of 7.5 µM (≈ 3.26 µg/mL). Still for that read-out and setting: next, `Cc1cc2nccc(-c3ccnn3C)c2c(C)c1-c1ccc(CN2CCOCC2)cc1` [Compound 63]: 2.2 µM (≈ 0.908 µg/mL); `CNC(=O)c1cc(-c2cccc(Cl)c2)c2c(C)c(-c3ccncc3)c(C)cc2n1` [Compound 66]: 2.5 µM (≈ 1 µg/mL). `CNC(=O)c1cc(-c2ccc(Cl)cc2)c2c(C)c(-c3ccncc3)c(C)cc2n1` [Compound 67]: the MIC90 stood at 40 µM (≈ 16.1 µg/mL).

The same assay, now with this note: Mycobacterium tuberculosis, Table 1, C2 SAR with chlorophenyl; Middlebrook 7H9, 37° C. six days, resazurin fluorescence after 48 hours; read-out: MIC90.
In the case of `Cc1cc2nccc(-c3ccccc3Cl)c2c(C)c1-c1ccncc1` [Compound 1], the MIC90 worked out at 5 µM (≈ 1.72 µg/mL). For the compound `Cc1cc2nc(CO)cc(-c3ccccc3Cl)c2c(C)c1-c1ccncc1` [Compound 3], the MIC90 was found to be 3.75 µM (≈ 1.41 µg/mL). Consider `Cc1cc2nc(C(C)(C)O)cc(-c3ccccc3Cl)c2c(C)c1-c1ccncc1` [Compound 4], for which the MIC90 was greater than 40 µM. On to `Cc1cc2nc(CN(C)C)cc(-c3ccccc3Cl)c2c(C)c1-c1ccncc1` [Compound 5], for which the MIC90 is 10 µM (≈ 4.02 µg/mL).

For the compound `Cc1cc2nc(CNCCO)cc(-c3ccccc3Cl)c2c(C)c1-c1ccncc1` [Compound 6], the MIC90 is 5 µM (≈ 2.09 µg/mL). In the case of `Cc1cc2nc(N)cc(-c3ccccc3Cl)c2c(C)c1-c1ccncc1` [Compound 7], the MIC90 turned out to be 10 µM (≈ 3.6 µg/mL). On to `CNc1cc(-c2ccccc2Cl)c2c(C)c(-c3ccncc3)c(C)cc2n1` [Compound 8], for which the MIC90 came to 6 µM (≈ 2.24 µg/mL). The same measure, in the same setting: the result for `Cc1cc2nc(NCCO)cc(-c3ccccc3Cl)c2c(C)c1-c1ccncc1` [Compound 9] reads 3 µM (≈ 1.21 µg/mL); that for `Cc1cc2nc(CCC(=O)N(C)C)cc(-c3ccccc3Cl)c2c(C)c1-c1ccncc1` [Compound 10], 20 µM (≈ 8.88 µg/mL).

On to `CNS(=O)(=O)c1cc(-c2ccccc2Cl)c2c(C)c(-c3ccncc3)c(C)cc2n1` [Compound 11], for which the MIC90 is 10 µM (≈ 4.38 µg/mL). Regarding `Cc1cc2nc(C(N)=O)cc(-c3ccccc3Cl)c2c(C)c1-c1ccncc1` [Compound 12], the MIC90 was 1.25 µM (≈ 0.485 µg/mL). `CNC(=O)c1cc(-c2ccccc2Cl)c2c(C)c(-c3ccncc3)c(C)cc2n1` [Compound 13]: the MIC90 stood at 0.8 µM (≈ 0.322 µg/mL). Still for that read-out and setting: next, `Cc1cc2nc(C(=O)NC3CC3)cc(-c3ccccc3Cl)c2c(C)c1-c1ccncc1` [Compound 14]: 1.9 µM (≈ 0.813 µg/mL); `Cc1cc2nc(C(=O)NCCO)cc(-c3ccccc3Cl)c2c(C)c1-c1ccncc1` [Compound 15]: 0.3 µM (≈ 0.13 µg/mL); `Cc1cc2nc(C(=O)NCCN(C)C)cc(-c3ccccc3Cl)c2c(C)c1-c1ccncc1` [Compound 16]: 0.3 µM (≈ 0.138 µg/mL).

Consider `Cc1cc2nc(C(=O)NO)cc(-c3ccccc3Cl)c2c(C)c1-c1ccncc1` [Compound 17], for which the MIC90 is 10 µM (≈ 4.04 µg/mL). For the compound `Cc1cc2nc(C(=O)N3CCCC3)cc(-c3ccccc3Cl)c2c(C)c1-c1ccncc1` [Compound 19], the MIC90 was determined as 2.5 µM (≈ 1.1 µg/mL). On to `Cc1cc2nc(C(=O)NS(=O)(=O)C3CC3)cc(-c3ccccc3Cl)c2c(C)c1-c1ccncc1` [Compound 20], for which the MIC90 was 2.5 µM (≈ 1.23 µg/mL). Still for that read-out and setting: the result for `Cc1cc2nc(C(=O)NCC3CCCS(=O)(=O)C3)cc(-c3ccccc3Cl)c2c(C)c1-c1ccncc1` (stereo not shown) [Compound 21] reads 0.8 µM (≈ 0.427 µg/mL); that for `Cc1cc2nc(C(=O)NCC(O)CO)cc(-c3ccccc3Cl)c2c(C)c1-c1ccncc1` (stereo not shown) [Compound 22], 0.4 µM (≈ 0.185 µg/mL). On to `Cc1cc2nc(C(=O)N[C@H]3CCCC[C@@H]3O)cc(-c3ccccc3Cl)c2c(C)c1-c1ccncc1` [Compound 23], for which the MIC90 worked out at 1.25 µM (≈ 0.608 µg/mL). Take `Cc1cc2nc(C(=O)N[C@H]3CCC[C@@H]3O)cc(-c3ccccc3Cl)c2c(C)c1-c1ccncc1` [Compound 24]: the MIC90 came out at 0.6 µM (≈ 0.283 µg/mL). Regarding `Cc1cc2nc(C(=O)NC3CCN(C)C3)cc(-c3ccccc3Cl)c2c(C)c1-c1ccncc1` (stereo not shown) [Compound 25], the MIC90 worked out at 1.25 µM (≈ 0.589 µg/mL).

Turning to `Cc1cc2nc(C(=O)NC(C)CCO)cc(-c3ccccc3Cl)c2c(C)c1-c1ccncc1` (stereo not shown) [Compound 26], the MIC90 is 1.25 µM (≈ 0.575 µg/mL). The same measure, in the same setting: the result for `Cc1cc2nc(C(=O)NCC(N)=O)cc(-c3ccccc3Cl)c2c(C)c1-c1ccncc1` [Compound 27] reads 0.8 µM (≈ 0.356 µg/mL).

In the case of `Cc1cc2nc(C(=O)NCC(C)(C)C(=O)O)cc(-c3ccccc3Cl)c2c(C)c1-c1ccncc1` [Compound 28], the MIC90 came to 80 µM (≈ 39 µg/mL). For `Cc1cc2nc(C(=O)N(C)C)cc(-c3ccccc3Cl)c2c(C)c1-c1ccncc1` [Compound 29], the MIC90 turned out to be 20 µM (≈ 8.32 µg/mL).

As to `Cc1cc2nc(C(=O)N3CCNCC3)cc(-c3ccccc3Cl)c2c(C)c1-c1ccncc1` [Compound 30], the MIC90 came to 10 µM (≈ 4.57 µg/mL). Consider `Cc1cc2nc(C(=O)N3CCOCC3)cc(-c3ccccc3Cl)c2c(C)c1-c1ccncc1` [Compound 32], for which the MIC90 came to 15 µM (≈ 6.87 µg/mL). Take `Cc1cc2nc(C(=O)NC3CCN(C)CC3)cc(-c3ccccc3Cl)c2c(C)c1-c1ccncc1` [Compound 33]: the MIC90 came to 0.8 µM (≈ 0.388 µg/mL). For the compound `Cc1cc2nc(C(=O)NC(CO)CO)cc(-c3ccccc3Cl)c2c(C)c1-c1ccncc1` [Compound 34], the MIC90 was 1.9 µM (≈ 0.878 µg/mL). `Cc1cc2nc(C(=O)NCC(C)(C)CO)cc(-c3ccccc3Cl)c2c(C)c1-c1ccncc1` [Compound 35]: the MIC90 was 1.6 µM (≈ 0.758 µg/mL).

The same assay, now with this note: Mycobacterium tuberculosis, Table 1A, C2 SAR with fluorophenyl; Middlebrook 7H9, 37° C. six days, resazurin fluorescence after 48 hours; read-out: MIC90.
As for `Cc1cc2nccc(-c3ccccc3F)c2c(C)c1-c1ccncc1` [Compound 36], the MIC90 turned out to be 5 µM (≈ 1.64 µg/mL).

`CNC(=O)c1cc(-c2ccccc2F)c2c(C)c(-c3ccncc3)c(C)cc2n1` [Compound 37]: the MIC90 worked out at 1.25 µM (≈ 0.482 µg/mL).

On to `Cc1cc2nc(C(=O)NCCO)cc(-c3ccccc3F)c2c(C)c1-c1ccncc1` [Compound 38], for which the MIC90 was found to be 1.6 µM (≈ 0.665 µg/mL). On the same count and under the same terms, the result for `Cc1cc2nc(C(=O)N[C@H](C)CO)cc(-c3ccccc3F)c2c(C)c1-c1ccncc1` [Compound 39] reads 0.6 µM (≈ 0.258 µg/mL); that for `Cc1cc2nc(C(=O)N[C@@H](C)CO)cc(-c3ccccc3F)c2c(C)c1-c1ccncc1` [Compound 40], 0.3 µM (≈ 0.129 µg/mL). Take `Cc1cc2nc(C(=O)N[C@H](C)CCO)cc(-c3ccccc3F)c2c(C)c1-c1ccncc1` [Compound 41]: the MIC90 stood at 0.16 µM (≈ 0.071 µg/mL). Regarding `Cc1cc2nc(C(=O)N[C@@H](C)CCO)cc(-c3ccccc3F)c2c(C)c1-c1ccncc1` [Compound 42], the MIC90 came out at 0.16 µM (≈ 0.071 µg/mL). Regarding `Cc1cc2nc(C(=O)NC[C@H](O)CO)cc(-c3ccccc3F)c2c(C)c1-c1ccncc1` [Compound 43], the MIC90 is 0.8 µM (≈ 0.356 µg/mL). For `Cc1cc2nc(C(=O)NC[C@@H](O)CO)cc(-c3ccccc3F)c2c(C)c1-c1ccncc1` [Compound 44], the MIC90 worked out at 0.6 µM (≈ 0.267 µg/mL). Turning to `Cc1cc2nc(C(=O)NC3CCN(C)C3)cc(-c3ccccc3F)c2c(C)c1-c1ccncc1` (stereo not shown) [Compound 45], the MIC90 stood at 1.25 µM (≈ 0.568 µg/mL). Still for that read-out and setting: the result for `Cc1cc2nc(C(=O)NC3CCN(C)CC3)cc(-c3ccccc3F)c2c(C)c1-c1ccncc1` [Compound 46] reads 1.25 µM (≈ 0.586 µg/mL).

The assay is the same for the next values; noted with them: Mycobacterium tuberculosis, Table 2, C4 SAR; Middlebrook 7H9, 37° C. six days, resazurin fluorescence after 48 hours; read-out: MIC90.
For `Cc1cc2nccc(-c3ccccc3C#N)c2c(C)c1-c1ccc(CN2CCOCC2)cc1` [Compound 52], the MIC90 was 2.5 µM (≈ 1.08 µg/mL).

As for `COc1cccc(-c2ccnc3cc(C)c(-c4ccc(CN5CCOCC5)cc4)c(C)c23)c1Cl` [Compound 53], the MIC90 was 10 µM (≈ 4.73 µg/mL). In the case of `CCN(CC)Cc1ccccc1-c1ccnc2cc(C)c(-c3ccc(CN4CCOCC4)cc3)c(C)c12` [Compound 54], the MIC90 amounted to 2.5 µM (≈ 1.23 µg/mL). Consider `Cc1cc2nccc(-c3ccccc3CO)c2c(C)c1-c1ccc(CN2CCOCC2)cc1` [Compound 55], for which the MIC90 is 2.5 µM (≈ 1.1 µg/mL). The same measure, in the same setting: the result for `Cc1cc2nccc(-c3ccccc3C(N)=O)c2c(C)c1-c1ccc(CN2CCOCC2)cc1` [Compound 56] reads 20 µM (≈ 9.03 µg/mL); that for `COc1ccncc1-c1ccnc2cc(C)c(-c3ccc(CN4CCOCC4)cc3)c(C)c12` [Compound 59], 2.5 µM (≈ 1.1 µg/mL); that for `COc1ncccc1-c1ccnc2cc(C)c(-c3ccc(CN4CCOCC4)cc3)c(C)c12` [Compound 60], 2.5 µM (≈ 1.1 µg/mL). The same measure, in the same setting: the result for `Cc1cc(-c2ccnc3cc(C)c(-c4ccc(CN5CCOCC5)cc4)c(C)c23)n(C)n1` [Compound 61] reads greater than 40 µM. Same read-out and setting: the result for `Cc1cc2nccc(-c3cncnc3)c2c(C)c1-c1ccc(CN2CCOCC2)cc1` [Compound 64] reads 2.5 µM (≈ 1.03 µg/mL); that for `Cc1cc2nccc(-c3cncnc3C)c2c(C)c1-c1ccc(CN2CCOCC2)cc1` [Compound 65], 5 µM (≈ 2.12 µg/mL).

The same assay, now with this note: Mycobacterium tuberculosis, Table 3, C4 SAR; Middlebrook 7H9, 37° C. six days, resazurin fluorescence after 48 hours; read-out: MIC90.
Consider `CNC(=O)c1cc(-c2ccccc2Cl)c2c(C)c(-c3ccncc3)c(C)cc2n1` [Compound 13], for which the MIC90 was 0.8 µM (≈ 0.322 µg/mL). In the case of `CNC(=O)c1cc(-c2ccccc2F)c2c(C)c(-c3ccncc3)c(C)cc2n1` [Compound 37], the MIC90 was determined as 0.6 µM (≈ 0.231 µg/mL).

Still in this assay, the particulars now being: Mycobacterium tuberculosis, Table 4A, C6 SAR with amide; Middlebrook 7H9, 37° C. six days, resazurin fluorescence after 48 hours; read-out: MIC90.
Consider `CNC(=O)c1cc(-c2ccccc2F)c2c(C)c(-c3ccncc3)c(C)cc2n1` [Compound 37], for which the MIC90 worked out at 1.25 µM (≈ 0.482 µg/mL).

Staying with this assay, now noted: Mycobacterium tuberculosis, Table 6; Middlebrook 7H9, 37° C. six days, resazurin fluorescence after 48 hours; read-out: MIC90.
For `Cc1cc2nc(C(=O)N[C@@H]3CNC[C@@H]3F)cc(-c3ccnn3C)c2c(C)c1-c1ccncc1` (racemic) [Compound 105, N-[(3R,4S and 3S,4R)-4-fluoropyrrolidin-3-yl]-5,7-dimethyl-4-(2-methylpyrazol-3-yl)-6-(4-pyridyl)quinoline-2-carboxamide], the MIC90 turned out to be 3 µM (≈ 1.33 µg/mL).

The assay is the same for the next values; noted with them: Table 4, C6 SAR; Middlebrook 7H9, 37° C. six days, resazurin fluorescence after 48 hours; read-out: MIC90.
Take `Cc1cc2nccc(-c3ccccc3)c2c(C)c1-c1ccc(CN2CCOCC2)cc1` [Compound 47]: the MIC90 turned out to be 0.45 µM (≈ 0.184 µg/mL).
